Test results: patent publication US20130236568A1, “PHOSPHAPLATINS HAVING ANTI-ANGIOGENIC, ANTI-METASTATIC, AND PRO-APOPTOTIC PROPERTIES AND USES THEREOF” (Ohio University, priority 2011, published 2013)

Columns and labels:
Type in all cases: cell-based, human
VEGFR2 gene = test: Quantitative real-time PCR, VEGFR2 gene expression in A2780 cells
Description: (§1) Evaluations of selected gene expressions in Human Umbilical Vein Endothelial Cells (HUVEC) and Human Ovarian Cancer Cells by quantitative reverse transcriptase polymerase chain reaction (PCR)
(§2) Quantitative real-time PCR experiments were performed to estimate the expression of a selection of targeted genes. HUVEC cells (Lonza Walkersville, Frederick, Md.) were cultured on 0.1% gelatin-coated petri dishes by following standard protocols recommended by the vendor in a humidified incubator by maintaining 5% CO2 at 37° C. Human epithelial ovarian cancer cells (A2780) and cisplatin-resistant cells (A2780/C30) were cultured in RPMI 1640 with or without cisplatin (7 μM) and pyrodach-4 (180 μM) for 0, 3, 12 and 24 hours. […] HUVECs were treated with or without cisplatin (7 μM) or pyrodach-4 (90 or 180 μM) for various durations ranging from 1 hr. to 6 hrs.
(§3) Both treated and untreated cancer cells were maintained in RPMI 1640 medium with 10% fetal bovine serum, 2 μmol L-glutamine, 100 units/mL penicillin-streptomycin and 0.25 units/mL insulin solution, at 37° C. with 5% CO2. RNA was isolated from both the treated and untreated cells. […] The quantity and purity of RNA were determined by UV spectroscopy (NanoDrop 2000 Thermo Scientific, Wilmington, Del.). A minimum absorbance ratio index (ratio of the absorbance measured at 260 nm over that at 280 nm) of 1.9 was used as an acceptable purity. […] The target gene was labeled with a blue dye (FAM, absorbance: 494 nm, emission: 518 nm) while the reference gene was tagged with a green dye (VIC, absorbance: 538 nm, emission: 554 nm). The cDNA concentrations were selected such that the threshold cycle (Ct) values for the target genes were between 17 and 32, most sensitive for the fluorescence detection by ABI StepOnePlus™ instrument used for the measurements.
(§4) The threshold cycle number (Ct), the point at which the fluorescence of the qPCR reaction just exceeds the threshold fluorescence of the detection system, was determined. […]

Bcl-2 = test: Expression of key genes with and without p53 inhibitor (Table 3): Bcl-2; conditions: positive = manifold increase, negative = decrease vs untreated cells
Description: as §2
as §3, with “The cDNA concentrations were selected such that the threshold cycle (Ct) values for the target genes were between 17 and 32, most sensitive for the fluorescence detection by ABI StepOnePlus™ instrument used for the measurements.” left out

Caspase 9 = test: Expression of key genes with and without p53 inhibitor (Table 3): Caspase 9; conditions: positive = manifold increase, negative = decrease vs untreated cells
Description: as §2
as §3, with “The cDNA concentrations were selected such that the threshold cycle (Ct) values for the target genes were between 17 and 32, most sensitive for the fluorescence detection by ABI StepOnePlus™ instrument used for the measurements.” left out

caspase-3 = test: Quantitative real-time PCR, caspase-3 expression in HUVEC; conditions: HUVEC treated with pyrodach-4
Description: as §1
Quantitative real-time PCR experiments were performed to estimate the expression of a selection of targeted genes. HUVEC cells (Lonza Walkersville, Frederick, Md.) were cultured on 0.1% gelatin-coated petri dishes by following standard protocols recommended by the vendor in a humidified incubator by maintaining 5% CO2 at 37° C. […]
as §3, with “CO2.” for “CO2. RNA was isolated from both the treated and untreated cells.”, “The cDNA concentrations were selected such that the threshold cycle (Ct) values for the target genes were between 17 and 32, most sensitive for the fluorescence detection by ABI StepOnePlus™ instrument used for the measurements.” left out
as §4

With “trans-(±)-1,2-cyclohexanediamine-trans-dihydroxo(pyrophosphato) platinum(IV) [Pyrodach-4]” the “Normalized expression of VEGFR2 gene” value (VEGFR2 gene; A2780 (cisplatin-sensitive), positive = manifold increase, negative = relative decrease vs untreated cells, cisplatin 7 μM, pyrodach-4 180 μM) was −2.0, the “Suppression of VEGFR-2 gene expression” value (VEGFR2 gene; cisplatin-sensitive human ovarian cancer cells) was no more than 50% and the “Expression of Bcl-2” value (Bcl-2; Pyrodach-4 + PFT-α) was −2.0. The “Expression of Bcl-2” value (Bcl-2; Pyrodach-4 treatment only) was 1.0, the “Expression of Caspase 9” value (Caspase 9; Pyrodach-4 + PFT-α) was 1.0 and the “Expression of Caspase 9” value (Caspase 9; Pyrodach-4 treatment only) was 2.0. For the same substance, the “Over-expression of caspase-3” value (caspase-3) was 2-3 fold.
